Measured values: US7365042B2, “Pyridine-3-sulfonyl compounds as pesticidal agents” (BASF Aktiengesellschaft, priority 2002, dated 2008)
Several values for one entry are separate records, joined by “and”; a condition that tells them apart may be missing. Identical values can stand only once.

How the values were obtained:
Assay type in all cases: in vivo
[1] = system: Cotton aphid (Aphis gossypii); assay: Cotton aphid leaf dip test (CA H43); conditions: mixed life stages
Protocol: (§1) Test compounds were prepared and formulated into aqueous formulations using acetone. The formulations were tested using the following target species: • SAW-L52-PRODER (southern armyworm), 2ND-3RD Instar Larvae, Leaf Dip, 4 days • CA-H43-APHIGO (cotton aphid), Mixed Life Stages, Leaf Dip • BA-H40-APHIFA (black bean aphid), Mixed Life Stages, Plant Drench • GPA-H52-MYZUPE (green peach aphid), Mixed Life Stages, Leaf Dip • SLWF-H45-BEMIAR (silver leaf whitefly), Adult, Leaf Dip • TSMR-A42-TETRUR (two-spotted spider mite, P-resistant origin), Mixed Life Soges, Leaf Dip
Test Procedures for Cotton aphid (Aphis gossypii) (CA—leaf dip):
Selected cotton plants to the cotyledon stage (one plant per pot). Placed one heavily infested cotyledon pair, hosting approximately 100 laboratory-reared aphids, an top of each test plant. Allowed the aphids to transfer to the test plants (overnight). Removed the drying cotyledons from the test plants prior to dipping.
Prepared test solutions as needed in 50:50 acetone: water and 100 ppm Kinetic® surfactant. Dipped the infested leaves of the intact plant into the test solution to provide complete coverage of the leaf surfaces. Placed in a well-vented area to dry.

[2] = system: Bean aphid (Aphis fabae); assay: Bean aphid test on nasturtium seedlings (BA H40); design: key to BA H40 observation (feeding): R = Reduced feeding, regardless of cause (e.g., repellent effects); conditions: 3 days; for BA H40 activity rating: mixed life stages
Protocol: as §1
Test Procedures for Bean aphid (Aphis fabae) (BA—Foliar):
Transferred approximately 5-day-old nasturtium seedlings (at the state of unfolded cotyledons), grown in Metro mix in propagation trays in the greenhouse, to Rootcubes, which were held in propagation trays Pressed the seed (still attached to the seedling) in the central depression of each cube. Held transferred seedlings for approximately 3 days in the greenhouse for expansion of the cotyledons.
In the insecticide screening laboratory, infested the seedlings. Positioned a paint roller screen above the 72 plants in each tray so that the screen was in contact with the foliage of the test plants. Spread approximately 50 infested nasturtium stems and leaves (from approximately 2-3 peat pots of insectary-reared aphids) an each screen. Kept the trag with the seedlings sitting in about ½ in. water overnight in the laboratory (leaving lights in lab on). Migration of aphids to the test plants occurred by morning. Removed the screen with drying leaves from the trays of test plants and discarded the leaves.
Prepared test solutions as needed in 50:50 acetone:water and 100 ppm Kinetic® surfactant. Selected plants to dip that had approximately 2-30 aphids per plant. Dipped each plant into the test solution to provide complete coverage of the foliage, stem, protruding seed surface and surrounding cube surface. Kept treated plants in the fume hood to dry. For routine screening, used one plant/treatment.
Placed treated plants in bioassay trays, 1 plant/well. Added water to fill each well. This allowed the plants to be watered from the roots, not interfering with the foliar treatment, and reduced potential migration of aphids between treatments. Kept treated plants at room temperature an the insecticide screening lab bench with continuous fluorescent light for 3 days.

[3] = system: Green peach aphid (Myzus persicae); assay: Green peach aphid leaf dip test (GPA H52); conditions: pepper, mixed life stages, five days
Protocol: as §1
Test Procedures for GPA—Green peach aphid (Myzus persicae)—Leaf Dip:
Selected pepper plants (one plant per pot) in the second leaf-pair stage, with the 1st leaf-pair measuring 6-10 cm from tip to tip. Removed the cotyledons. Placed infested pepper leaves or leaf sections on top of the test plants, allowing for approximately 60 laboratory-reared aphids per plant. Allowed the aphids to transfer from the leaf sections to the test plants (overnight) to reach a density of at least 40 aphids per plant, then removed the leaf sections.
Prepared test solutions as needed in 50:50 acetone:water and 100 ppm Kinetic® surfactant (STP#1A). Dipped the leaves of the infested plant into the test solution to provide complete coverage of the leaf surfaces. Placed in a well-vented area to dry. Test plants were maintained under fluorescent light (24 hour photoperiod) at 25±2° C. and 20-40% relative humidity for five days, at which time aphid survival was determined (see Table 1a).

[4] = system: Two-spotted spider mite (Tetranychus uriticae), P-resistant origin; assay: Two-spotted spider mite leaf dip test (TSMR A42); conditions: 300 ppm, lima bean, mixed life stages, five days
Protocol: as §1
Test Procedures for Two-spotted spider mite (Tetranychus uriticae) TSM—leaf-dip:
Selected lima bean plants (one plant per pot), grown to the first leaf pair with a span of 7-12 cm. Placed sections of a heavily infested leaf (laboratory reared mites) an the test plants. Allowed the mites to transfer from the leaf sections to the test plants (at least two houss) to provide at least 100 mites per leaf. Removed the leaf sections from the test plants prior to dipping.
Prepared test solutions as needed in 50:50 acetone:water and 100 ppm Kinetic® surfactant. Dipped the infested leaves of the intact plant into the test solution to provide complete coverage of the leaf surfaces. Placed in a well-vented area to dry. […]

## C#CCNS(=O)(=O)c1cnccc1C(F)(F)F [Compound 1, 4-Trifluoromethyl-pyridine-3-sulfonic acid prop-2-ynylamide]
[1]; 10 ppm
  CA H43 activity rating: 0 (0 = 0-25% reduction of live population vs. check)
[1]; 100 ppm
  CA H43 activity rating: 8 (8 = 86-99% reduction of live population vs. check)
[1]; 300 ppm
  CA H43 activity rating: 8 (8 = 86-99% reduction of live population vs. check)
[2]; 10 ppm
  BA H40 activity rating: 0^ (0 = 0-25% reduction of live population vs. check)
[2]; 100 ppm
  BA H40 observation (feeding): R
  BA H40 activity rating: 5 (5 = 50-74% reduction of live population vs. check)
[2]; 300 ppm
  BA H40 observation (feeding): R
  BA H40 activity rating: 8 (8 = 86-99% reduction of live population vs. check)
[3]; 10 ppm
  GPA H52 activity rating: 0 (0 = 0-25% reduction of live population vs. check)
[3]; 100 ppm
  GPA H52 activity rating: 7 (7 = 75-85% reduction of live population vs. check)
[3]; 300 ppm
  GPA H52 activity rating: 8 (8 = 86-99% reduction of live population vs. check)
[4]
  TSMR A42 activity rating: 0 (0 = 0-25% reduction of live population vs. check)

## N#CCNS(=O)(=O)c1cnccc1C(F)(F)F [Compound 2, 4-Trifluoromethyl-pyridine-3-sulfonic acid cyanomethyl-amide]
[1]; 10 ppm
  CA H43 activity rating: 0 (0 = 0-25% reduction of live population vs. check)
[1]; 100 ppm
  CA H43 activity rating: 8 (8 = 86-99% reduction of live population vs. check)
[1]; 300 ppm
  CA H43 activity rating: 9 (9 = 100% reduction of live population vs. check)
[2]; 10 ppm
  BA H40 activity rating: 0^ (0 = 0-25% reduction of live population vs. check)
[2]; 100 ppm
  BA H40 observation (feeding): R
  BA H40 activity rating: 0 (0 = 0-25% reduction of live population vs. check)
[2]; 300 ppm
  BA H40 observation (feeding): R
  BA H40 activity rating: 7 (7 = 75-85% reduction of live population vs. check)
[3]; 10 ppm
  GPA H52 activity rating: 0 (0 = 0-25% reduction of live population vs. check)
[3]; 100 ppm
  GPA H52 activity rating: 3 (3 = 25-49% reduction of live population vs. check)
[3]; 300 ppm
  GPA H52 activity rating: 8 (8 = 86-99% reduction of live population vs. check) and 5 (5 = 50-74% reduction of live population vs. check)
[4]
  TSMR A42 activity rating: 0 (0 = 0-25% reduction of live population vs. check)
